{
  "source": "BindingDB's records for patent US10519177",
  "about": "(Plexxikon Inc., 2019)",
  "target": "T1, Bromodomain-containing protein 4 [1-477] (Human, UniProt O60885)",
  "T1 construct": "1-477",
  "data": [
    {"compound": "Cc1noc(C)c1-c1cnc2c(-c3ccc(C(=O)O)cc3)cn(CC3CC4(CCC4)C3)c2c1", "note": "[US10519177, Compound P-0603]", "values": [
      {"measurement": "IC50", "result": "< 1000", "unit": "nM"}
    ]},
    {"compound": "Cc1noc(C)c1-c1cnc2c(I)cn(Cc3ccccc3C#N)c2c1", "note": "[US10519177, Compound P-0921]", "values": [
      {"measurement": "IC50", "result": "< 1000", "unit": "nM"}
    ]},
    {"compound": "COC(=O)c1ccc(-c2c[nH]c3cc(-c4c(C)noc4C)cnc23)cc1", "note": "[US10519177, Compound P-1033]", "values": [
      {"measurement": "IC50", "result": "< 1000", "unit": "nM"}
    ]}
  ]
}
